Source: article PMC5428509, “Irreversible inhibition of BTK kinase by a novel highly selective inhibitor CHMFL-BTK-11 suppresses inflammatory response in rheumatoid arthritis model” (Scientific Reports, 2017)

Columns and labels:
Assay in all cases: biochemical
Parameters in all cases: KinomeScan competition binding panel (DiscoveRx), percent of control at 1 uM
Conditions in all cases: read-out: Percent Control
PFPK5(P.falciparum) = target: T1, PFPK5(P.falciparum) (Plasmodium falciparum, UniProt P61075)
T1 construct: gene CRK2

NEK6 = NEK6 (Homo sapiens, UniProt Q9HC98)
Source text: (§1) In order to further confirm the binding mode, we then tested the compounds in the BTK wild-type (wt) and BTK C481S mutant with immunoblotting by looking at the BTK Y551 auto-phosphorylation. […] In addition, a covalent bond was preferred to form between the […] acrylamide and Cys-481 near the hinge binding area, which further confirmed its irreversible binding mode (Fig. 1d). We next investigated CHMFL-BTK-11′s selectivity profile in 456 kinases/mutants with KinomeScan^TM technology.

EGFR(L858R,T790M) = EGFR(L858R,T790M) (Homo sapiens, UniProt P00533, L858R/T790M)
Chain of EGFR(L858R,T790M) (P00533 whole entry T790M/L858R): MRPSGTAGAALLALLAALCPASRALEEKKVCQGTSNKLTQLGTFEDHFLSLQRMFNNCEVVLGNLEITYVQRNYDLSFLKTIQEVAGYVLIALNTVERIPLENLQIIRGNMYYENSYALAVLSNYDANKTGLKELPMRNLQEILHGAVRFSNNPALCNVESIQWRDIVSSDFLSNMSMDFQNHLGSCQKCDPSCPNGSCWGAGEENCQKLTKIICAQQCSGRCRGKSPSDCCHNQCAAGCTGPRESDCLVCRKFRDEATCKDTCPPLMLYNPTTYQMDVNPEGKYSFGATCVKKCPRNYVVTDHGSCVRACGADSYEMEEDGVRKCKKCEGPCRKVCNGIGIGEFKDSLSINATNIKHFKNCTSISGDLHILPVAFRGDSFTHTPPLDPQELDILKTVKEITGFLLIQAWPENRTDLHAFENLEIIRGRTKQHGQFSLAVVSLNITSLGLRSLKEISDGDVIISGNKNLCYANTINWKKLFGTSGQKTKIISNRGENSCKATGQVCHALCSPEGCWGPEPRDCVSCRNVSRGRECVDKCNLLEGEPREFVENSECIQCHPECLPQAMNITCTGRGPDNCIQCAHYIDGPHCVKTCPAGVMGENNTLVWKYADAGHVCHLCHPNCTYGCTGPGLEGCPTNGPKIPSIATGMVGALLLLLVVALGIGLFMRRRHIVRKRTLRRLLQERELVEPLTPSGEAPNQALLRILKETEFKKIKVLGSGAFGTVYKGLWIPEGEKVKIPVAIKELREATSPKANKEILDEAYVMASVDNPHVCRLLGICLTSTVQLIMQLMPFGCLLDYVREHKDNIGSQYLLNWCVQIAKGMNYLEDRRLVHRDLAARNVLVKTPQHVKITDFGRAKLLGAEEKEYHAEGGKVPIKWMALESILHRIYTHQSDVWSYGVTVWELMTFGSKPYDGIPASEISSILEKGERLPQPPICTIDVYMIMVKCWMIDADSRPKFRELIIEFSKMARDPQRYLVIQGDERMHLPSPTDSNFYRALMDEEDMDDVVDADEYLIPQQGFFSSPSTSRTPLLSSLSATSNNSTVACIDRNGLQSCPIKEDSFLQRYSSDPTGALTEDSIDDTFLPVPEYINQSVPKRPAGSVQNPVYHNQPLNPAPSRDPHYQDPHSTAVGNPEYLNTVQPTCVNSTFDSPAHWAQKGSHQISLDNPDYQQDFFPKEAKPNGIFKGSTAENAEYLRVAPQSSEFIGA
Source text: as §1

PKN2 = PKN2 (Homo sapiens, UniProt Q16513)
Source text: as §1

CAMK2G = CAMK2G (Homo sapiens, UniProt Q13555)
Source text: as §1

DYRK2 = DYRK2 (Homo sapiens, UniProt Q92630)
Chain of DYRK2 (Q92630 whole entry): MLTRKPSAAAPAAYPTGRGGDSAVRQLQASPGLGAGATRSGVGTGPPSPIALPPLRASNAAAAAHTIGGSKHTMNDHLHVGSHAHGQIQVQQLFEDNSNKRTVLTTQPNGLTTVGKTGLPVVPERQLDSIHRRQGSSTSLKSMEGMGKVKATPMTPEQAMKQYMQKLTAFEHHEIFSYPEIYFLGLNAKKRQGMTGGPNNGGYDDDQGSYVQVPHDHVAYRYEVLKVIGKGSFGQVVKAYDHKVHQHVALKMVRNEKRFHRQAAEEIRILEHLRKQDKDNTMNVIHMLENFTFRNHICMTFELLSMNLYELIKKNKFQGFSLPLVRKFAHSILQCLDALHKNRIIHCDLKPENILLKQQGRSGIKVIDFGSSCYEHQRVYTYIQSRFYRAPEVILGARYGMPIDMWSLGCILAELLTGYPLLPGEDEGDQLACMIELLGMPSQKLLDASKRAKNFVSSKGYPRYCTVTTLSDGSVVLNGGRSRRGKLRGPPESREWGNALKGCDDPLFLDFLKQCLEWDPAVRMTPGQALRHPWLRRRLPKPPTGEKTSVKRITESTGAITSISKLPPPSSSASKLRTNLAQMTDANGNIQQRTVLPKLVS
Source text: as §1

RIPK4 = RIPK4 (Homo sapiens, UniProt P57078)
Chain of RIPK4 (P57078 whole entry): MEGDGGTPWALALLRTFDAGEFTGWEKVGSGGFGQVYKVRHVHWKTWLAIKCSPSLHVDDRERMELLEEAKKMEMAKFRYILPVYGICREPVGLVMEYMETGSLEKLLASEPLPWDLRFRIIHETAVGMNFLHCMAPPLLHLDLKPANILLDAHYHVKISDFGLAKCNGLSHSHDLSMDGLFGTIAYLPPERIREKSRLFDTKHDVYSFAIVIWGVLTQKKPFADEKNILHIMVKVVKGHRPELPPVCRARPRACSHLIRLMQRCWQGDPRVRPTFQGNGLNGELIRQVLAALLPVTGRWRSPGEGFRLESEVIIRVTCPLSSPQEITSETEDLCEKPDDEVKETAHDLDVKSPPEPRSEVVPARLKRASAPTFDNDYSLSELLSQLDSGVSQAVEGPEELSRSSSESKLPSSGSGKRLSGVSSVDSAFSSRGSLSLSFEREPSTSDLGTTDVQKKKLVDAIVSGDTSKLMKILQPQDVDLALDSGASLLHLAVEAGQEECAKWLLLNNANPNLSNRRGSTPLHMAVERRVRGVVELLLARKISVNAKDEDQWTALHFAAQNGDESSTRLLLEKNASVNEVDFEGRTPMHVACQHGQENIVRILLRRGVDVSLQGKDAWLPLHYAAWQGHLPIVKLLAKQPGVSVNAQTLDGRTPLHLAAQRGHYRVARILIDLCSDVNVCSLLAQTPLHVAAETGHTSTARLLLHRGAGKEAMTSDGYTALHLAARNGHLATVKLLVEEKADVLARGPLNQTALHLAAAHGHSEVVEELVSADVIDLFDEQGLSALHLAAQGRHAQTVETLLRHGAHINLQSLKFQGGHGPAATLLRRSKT
Source text: as §1

KIT(A829P) = KIT(A829P) (Homo sapiens, UniProt P10721, A829P)
Source text: as §1

FLT3(R834Q) = FLT3(R834Q) (Homo sapiens, UniProt P36888, R834Q)
Source text: as §1

ASK2 = target: T2, ASK2 (Homo sapiens, UniProt O95382)
T2 construct: gene MAP3K6
Source text: as §1

PIK3CA(C420R) = PIK3CA(C420R) (Homo sapiens, UniProt P42336, C420R)
Source text: as §1

BRK = target: T3, BRK (Homo sapiens, UniProt Q13882)
T3 construct: gene PTK6
Source text: as §1

MAP4K5 = MAP4K5 (Homo sapiens, UniProt Q9Y4K4)
Source text: as §1

DDR1 = DDR1 (Homo sapiens, UniProt Q08345)
Source text: as §1

DLK = target: T4, DLK (Homo sapiens, UniProt Q12852)
T4 construct: gene MAP3K12
T4 sequence (Q12852 whole entry): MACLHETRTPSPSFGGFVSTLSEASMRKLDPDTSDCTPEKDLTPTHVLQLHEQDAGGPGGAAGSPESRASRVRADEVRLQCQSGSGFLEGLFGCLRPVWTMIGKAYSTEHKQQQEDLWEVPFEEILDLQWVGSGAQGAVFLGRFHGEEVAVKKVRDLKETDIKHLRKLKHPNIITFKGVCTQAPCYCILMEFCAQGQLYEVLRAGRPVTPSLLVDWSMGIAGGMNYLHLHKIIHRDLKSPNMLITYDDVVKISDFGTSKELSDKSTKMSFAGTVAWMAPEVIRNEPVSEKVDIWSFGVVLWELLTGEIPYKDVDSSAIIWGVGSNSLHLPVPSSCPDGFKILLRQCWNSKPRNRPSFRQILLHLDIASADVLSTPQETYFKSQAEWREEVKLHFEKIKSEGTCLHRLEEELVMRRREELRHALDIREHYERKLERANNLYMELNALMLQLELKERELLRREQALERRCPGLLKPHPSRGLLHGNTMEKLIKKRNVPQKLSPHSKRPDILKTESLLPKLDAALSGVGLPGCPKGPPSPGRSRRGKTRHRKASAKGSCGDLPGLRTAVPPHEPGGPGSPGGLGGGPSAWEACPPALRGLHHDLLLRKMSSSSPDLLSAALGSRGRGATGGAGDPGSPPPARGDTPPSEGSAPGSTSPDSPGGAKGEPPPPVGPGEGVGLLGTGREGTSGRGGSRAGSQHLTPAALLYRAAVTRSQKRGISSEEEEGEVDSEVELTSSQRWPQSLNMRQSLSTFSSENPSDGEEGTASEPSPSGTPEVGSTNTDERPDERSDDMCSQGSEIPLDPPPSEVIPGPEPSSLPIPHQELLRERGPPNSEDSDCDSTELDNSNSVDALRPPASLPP
Source text: as §1

ITK = ITK (Homo sapiens, UniProt Q08881)
Source text: as §1

AKT1 = AKT1 (Homo sapiens, UniProt P31749)
Source text: as §1

ABL2 = ABL2 (Homo sapiens, UniProt P42684)
Source text: as §1

PDGFRA = PDGFRA (Homo sapiens, UniProt P16234)
Source text: as §1

EGFR(G719S) = EGFR(G719S) (Homo sapiens, UniProt P00533, G719S)
Source text: as §1

CDKL2 = CDKL2 (Homo sapiens, UniProt Q92772)
Source text: as §1

RIOK1 = RIOK1 (Homo sapiens, UniProt Q9BRS2)
Chain of RIOK1 (Q9BRS2 whole entry): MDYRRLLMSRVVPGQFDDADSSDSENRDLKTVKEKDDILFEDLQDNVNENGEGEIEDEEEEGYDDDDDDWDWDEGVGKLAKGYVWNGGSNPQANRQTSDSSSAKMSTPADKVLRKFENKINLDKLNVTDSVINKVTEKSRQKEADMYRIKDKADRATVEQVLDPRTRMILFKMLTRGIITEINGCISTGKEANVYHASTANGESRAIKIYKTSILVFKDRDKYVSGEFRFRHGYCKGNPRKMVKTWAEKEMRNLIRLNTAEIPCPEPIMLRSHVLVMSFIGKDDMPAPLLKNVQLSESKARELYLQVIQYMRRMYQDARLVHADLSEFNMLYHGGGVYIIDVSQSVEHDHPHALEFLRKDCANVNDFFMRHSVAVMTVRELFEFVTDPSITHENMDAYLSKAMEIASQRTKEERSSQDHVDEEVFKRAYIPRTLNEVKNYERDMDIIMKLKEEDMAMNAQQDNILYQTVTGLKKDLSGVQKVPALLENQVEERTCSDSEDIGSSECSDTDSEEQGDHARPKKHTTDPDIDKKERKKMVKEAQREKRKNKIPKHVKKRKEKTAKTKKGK
Source text: as §1

[1] = target: T5, RPS6KA4(Kin.Dom.1-N-terminal) (Homo sapiens, UniProt O75676)
T5 construct: Kin.Dom.1-N-terminal
T5 sequence (O75676 whole entry): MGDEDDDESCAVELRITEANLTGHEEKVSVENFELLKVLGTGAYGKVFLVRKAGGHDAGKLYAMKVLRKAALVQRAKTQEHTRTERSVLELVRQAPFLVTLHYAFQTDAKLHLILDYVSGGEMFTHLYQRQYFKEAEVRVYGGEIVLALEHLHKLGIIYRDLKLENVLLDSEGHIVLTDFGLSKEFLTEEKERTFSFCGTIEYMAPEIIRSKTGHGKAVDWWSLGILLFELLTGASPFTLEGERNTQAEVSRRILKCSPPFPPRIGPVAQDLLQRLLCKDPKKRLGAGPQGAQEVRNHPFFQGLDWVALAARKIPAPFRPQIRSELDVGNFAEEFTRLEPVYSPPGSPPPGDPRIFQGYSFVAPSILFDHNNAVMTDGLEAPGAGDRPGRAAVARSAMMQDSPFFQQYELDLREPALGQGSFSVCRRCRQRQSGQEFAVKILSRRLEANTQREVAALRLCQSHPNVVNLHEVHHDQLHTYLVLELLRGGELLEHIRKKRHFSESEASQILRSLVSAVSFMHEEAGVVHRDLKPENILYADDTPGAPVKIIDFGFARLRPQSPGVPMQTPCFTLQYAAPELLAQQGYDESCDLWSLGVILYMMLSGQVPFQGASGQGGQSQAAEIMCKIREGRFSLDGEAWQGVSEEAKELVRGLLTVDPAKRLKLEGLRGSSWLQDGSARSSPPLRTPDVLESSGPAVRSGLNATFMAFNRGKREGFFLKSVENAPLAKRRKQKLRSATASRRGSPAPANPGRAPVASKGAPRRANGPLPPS
Source text: as §1

CDK8 = CDK8 (Homo sapiens, UniProt P49336)
Source text: as §1

PHKG2 = PHKG2 (Homo sapiens, UniProt P15735)
Source text: as §1

Work on `C=CC(=O)Nc1cc(-n2c(=O)ccc3cnc4ccc(-n5cccn5)cc4c32)ccc1C` [CHMFL-BTK-11] yielded a remaining binding at 1 µM (PFPK5(P.falciparum)) of 100%, a remaining binding at 1 µM (NEK6) of 100% and a remaining binding at 1 µM (EGFR(L858R,T790M)) of 42%. The remaining binding at 1 µM (PKN2) was 100%, the remaining binding at 1 µM (CAMK2G) was 73% and the remaining binding at 1 µM (DYRK2) was 55%. For the same compound, the remaining binding at 1 µM (RIPK4) was 100%, the remaining binding at 1 µM (KIT(A829P)) was 98% and the remaining binding at 1 µM (FLT3(R834Q)) was 99%. It also gave a remaining binding at 1 µM (ASK2) of 100%, a remaining binding at 1 µM (PIK3CA(C420R)) of 74% and a remaining binding at 1 µM (BRK) of 100%. The remaining binding at 1 µM (MAP4K5) was 100%, the remaining binding at 1 µM (DDR1) was 100% and the remaining binding at 1 µM (DLK) was 100%. The remaining binding at 1 µM (ITK) was 100%, the remaining binding at 1 µM (AKT1) was 96% and the remaining binding at 1 µM (ABL2) was 100%. The remaining binding at 1 µM (PDGFRA) was 100%, the remaining binding at 1 µM (EGFR(G719S)) was 88% and the remaining binding at 1 µM (CDKL2) was 81%. The remaining binding at 1 µM (RIOK1) was 66%, the remaining binding at 1 µM [1] was 100% and the remaining binding at 1 µM (CDK8) was 91%. For the same compound, the remaining binding at 1 µM (PHKG2) was 100%.
